In US7285561B2, “Imidazo-substituted compounds as p38 kinase inhibitors” (Roche Palo Alto LLC, priority 2006, dated 2007):
Structures can show the parent of a compound that is named as a salt.

Molecular target: T1, p-38 MAP kinase (Homo sapiens, UniProt Q16539)
T1 construct: made in house; host or cells: E. coli (co-expressed with SEK-1 and MEKK)
Test: Inhibition of p-38 (MAP) kinase, in vitro assay (transfer of γ-phosphate from γ-33P-ATP to Myelin Basic Protein)
Type: biochemical
Details: phosphorylated recombinant p38 MAP kinase; substrate MBP and γ-33P-ATP; 30° C.; read-out: IC50, the concentration causing 50% inhibition of the p-38 enzyme
Method: The p-38 MAP kinase inhibitory activity of compounds of this invention in vitro was determined by measuring the transfer of the γ-phosphate from γ-^33P-ATP by p-38 kinase to Myelin Basic Protein (MBP), using the a minor modification of the method described in Ahn, N. G.; et al. J. of Biol. Chem. Vol. 266(7), 4220-4227, (1991)
The phosphorylated form of the recombinant p38 MAP kinase was expressed with SEK-1 and MEKK in E. Coli (see, Khokhlatchev, A. et al. J. of Biol. Chem. Vol. 272(17), 11057-11062, (1997) and then purified by affinity chromatography using a Nickel column.
The phosphorylated p38 MAP kinase was diluted in kinase buffer (20 mM 3-(N-morpholino)propanesulfonic acid, pH 7.2, 25 mM β-glycerol phosphate, 5 mM ethylene glycol-bis(beta-aminoethyl ether)-N,N,N′,N′-tetraacetic acid, 1 mM sodium vanadate, 1 mM dithiothreitol, 40 mM magnesium chloride). Test compound dissolved in DMSO or only DMSO (control) was added and the samples were incubated for 10 min. at 30° C. The kinase reaction was initiated by the addition of a substrate cocktail containing MBP and γ-^33P-ATP. After incubating for an additional 20 min. at 30° C., the reaction was terminated by adding 0.75% phosphoric acid. The phosphorylated MBP was then separated from the residual γ-^33P-ATP using a phosphocellulose membrane (Millipore, Bedford, Mass.) and quantitated using a scintillation counter (Packard, Meriden, Conn.).

T1 sequence (Q16539 whole entry): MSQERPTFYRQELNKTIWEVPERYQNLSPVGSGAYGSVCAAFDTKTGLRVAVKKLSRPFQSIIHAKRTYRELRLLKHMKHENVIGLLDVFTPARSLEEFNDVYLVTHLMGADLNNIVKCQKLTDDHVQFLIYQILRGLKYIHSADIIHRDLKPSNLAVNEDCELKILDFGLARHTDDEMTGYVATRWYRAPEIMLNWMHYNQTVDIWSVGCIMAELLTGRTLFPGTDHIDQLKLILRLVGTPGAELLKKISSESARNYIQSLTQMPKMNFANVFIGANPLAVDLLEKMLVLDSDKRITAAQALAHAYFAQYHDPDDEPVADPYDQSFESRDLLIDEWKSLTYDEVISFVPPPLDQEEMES

SMILES	IC50 [nM]
O[C@H]1CC[C@H](Nc2ncc3c(n2)N2CCN=C2C(c2ccccc2Cl)=C3)CC1 [Compound 13]	1140
CC(C)Nc1ncc2cc(-c3ccccc3Cl)c3nccn3c2n1 [Compound 7]	1.4
O[C@H]1CC[C@H](Nc2ncc3c(n2)N2CCN=C2N(c2ccccc2Cl)C3)CC1 [Compound 12]	6620
O[C@H]1CC[C@H](Nc2ncc3cc(-c4ccccc4Cl)c4nccn4c3n2)CC1 [Compound 1]	10
CC(C)(CO)Nc1ncc2cc(-c3ccccc3Cl)c3nccn3c2n1 [Compound 6]	18.8
CS(=O)(=O)N1CCC(Nc2ncc3cc(-c4ccccc4Cl)c4nccn4c3n2)CC1 [Compound 3]	2.7

System: not given
Test: not given
Details: not given

SMILES	melting point [°C]
O[C@H]1CC[C@H](Nc2ncc3c(n2)N2CCN=C2C(c2ccccc2Cl)=C3)CC1 [Compound 13]	169.3 to 175.8
Clc1ccccc1-c1cc2cnc(NC3CCOCC3)nc2n2ccnc12 (as salt: HCl) [Compound 2]	211 to 214
CC(C)Nc1ncc2cc(-c3ccccc3Cl)c3nccn3c2n1 (as salt: HCl) [Compound 7]	210 to 212.5
CS(=O)(=O)CCNc1ncc2cc(-c3ccccc3Cl)c3nccn3c2n1 (as salt: HCl) [Compound 9]	172.2 to 176
CC(C)(CO)Nc1ncc2cc(-c3ccccc3Cl)c3nccn3c2n1 (as salt: HCl) [Compound 6]	190.8 to 194.3
O=S1(=O)CCC(Nc2ncc3cc(-c4ccccc4Cl)c4nccn4c3n2)CC1 (as salt: HCl) [Compound 5]	221.8 to 226.8
O[C@H]1CC[C@H](Nc2ncc3cc(-c4ccccc4Cl)c4nccn4c3n2)CC1 [Compound 1]	116 to 119
CS(=O)(=O)N1CCC(Nc2ncc3cc(-c4ccccc4Cl)c4nccn4c3n2)CC1 (as salt: HCl) [Compound 3]	188 to 194
Fc1ccc(CNc2ncc3cc(-c4ccccc4Cl)c4nccn4c3n2)cc1 (as salt: HCl) [Compound 8]	178 to 180
